{"source": "patent US20090202630A1", "about": "“ORALLY DISINTEGRATING TABLET COMPOSITIONS OF RANITIDINE AND METHODS OF MANUFACTURE” (priority 2008, published 2009)", "origin": "cited, not measured here", "note": "Counter-ions that a name gives are not always drawn.", "data": [{"compound": "CNC(=C[N+](=O)[O-])NCCSCc1ccc(CN(C)C)o1", "note": "[Ranitidine hydrochloride]", "values": [{"measurement": "solubility in water (in words)", "value": "freely soluble"}]}]}
